Measured values: ChEMBL document CHEMBL3632523, “Evaluation of Improved Glycogen Synthase Kinase-3α Inhibitors in Models of Acute Myeloid Leukemia” (J Med Chem, 2015)
≈ marks a conversion by molar mass, not a printed value. Values belong to the molecule of their own block, whether it stands above or below them. Calls of active or inactive are those of the source. The calls are words filed in the database; no cut-off is given here.

Columns and labels:
[1] = Aqueous solubility of the compound in water by HPLC based shake flask method; type: physicochemical
[2] = molecular target: T1, Glycogen synthase kinase-3 alpha (Homo sapiens, UniProt P49840); conditions: HL-60, 5 to 10 uM
Target sequence in this assay (P49840 2-483 limits assumed): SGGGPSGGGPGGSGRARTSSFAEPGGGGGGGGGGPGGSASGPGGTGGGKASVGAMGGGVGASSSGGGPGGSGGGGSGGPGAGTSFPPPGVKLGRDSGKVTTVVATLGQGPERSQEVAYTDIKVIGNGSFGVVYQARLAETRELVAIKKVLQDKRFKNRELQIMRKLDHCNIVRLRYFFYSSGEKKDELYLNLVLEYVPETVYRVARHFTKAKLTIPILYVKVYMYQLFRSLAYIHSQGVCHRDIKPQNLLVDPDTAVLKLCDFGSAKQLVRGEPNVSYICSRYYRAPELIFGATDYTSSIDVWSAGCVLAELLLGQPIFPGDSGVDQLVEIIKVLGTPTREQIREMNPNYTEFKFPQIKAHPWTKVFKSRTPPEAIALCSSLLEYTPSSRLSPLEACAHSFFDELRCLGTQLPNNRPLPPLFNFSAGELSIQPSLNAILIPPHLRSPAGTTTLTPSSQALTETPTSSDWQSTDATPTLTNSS

[3] = molecular target: T1, Glycogen synthase kinase-3 alpha
Target sequence in this assay (P49840 whole entry): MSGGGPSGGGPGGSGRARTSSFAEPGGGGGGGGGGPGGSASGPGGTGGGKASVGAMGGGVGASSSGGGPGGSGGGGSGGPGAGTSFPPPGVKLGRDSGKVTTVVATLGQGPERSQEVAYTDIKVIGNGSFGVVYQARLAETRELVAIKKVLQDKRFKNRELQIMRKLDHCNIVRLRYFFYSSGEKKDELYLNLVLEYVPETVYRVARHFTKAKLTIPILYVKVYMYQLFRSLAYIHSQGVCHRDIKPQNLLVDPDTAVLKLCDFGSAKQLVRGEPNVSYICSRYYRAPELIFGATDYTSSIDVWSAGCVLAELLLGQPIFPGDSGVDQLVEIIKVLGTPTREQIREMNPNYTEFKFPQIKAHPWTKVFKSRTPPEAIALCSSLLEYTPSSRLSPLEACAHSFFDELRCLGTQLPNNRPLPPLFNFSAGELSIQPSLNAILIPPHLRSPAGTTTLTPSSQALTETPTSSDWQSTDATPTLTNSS

[4] = molecular target: T1, Glycogen synthase kinase-3 alpha; conditions: NB-4, 5 to 10 uM
Target sequence in this assay (P49840 2-483 limits assumed): as the sequence (P49840 2-483 limits assumed) above
Description: Inhibition of GSK-3 alpha in human NB4 cells assessed as CD11b expression at 5 to 10 uM after 6 days by flow cytometry

[5] = molecular target: T1, Glycogen synthase kinase-3 alpha; conditions: NB-4, 5 to 10 uM; remark: listed apart in the source
Target sequence in this assay (P49840 2-483 limits assumed): as above
Description: Inhibition of GSK-3 alpha in human NB4 cells assessed as increased vacuolization at 5 to 10 uM after 6 days by May-Grunwald Giemsa staining based light microscopy

[6] = molecular target: T1, Glycogen synthase kinase-3 alpha; conditions: HL-60, 5 to 10 uM; remark: listed apart in the source
Target sequence in this assay (P49840 2-483 limits assumed): as above
Description: Inhibition of GSK-3 alpha in human HL-60 cells assessed as increased vacuolization at 5 to 10 uM after 6 days by May-Grunwald Giemsa staining based light microscopy

[7] = molecular target: T1, Glycogen synthase kinase-3 alpha; conditions: NB-4, 5 to 10 uM; remark: listed apart in the source
Target sequence in this assay (P49840 2-483 limits assumed): as above
Description: Inhibition of GSK-3 alpha in human NB4 cells assessed as decreased nuclear to cytoplasmic ratio at 5 to 10 uM after 6 days by May-Grunwald Giemsa staining based light microscopy

[8] = molecular target: T1, Glycogen synthase kinase-3 alpha; conditions: HL-60, 5 to 10 uM; remark: listed apart in the source
Target sequence in this assay (P49840 2-483 limits assumed): as above
Description: Inhibition of GSK-3 alpha in human HL-60 cells assessed as CD14 expression at 5 to 10 uM after 6 days by flow cytometry

[9] = molecular target: T1, Glycogen synthase kinase-3 alpha; conditions: HL-60, 5 to 10 uM; remark: listed apart in the source
Description: Inhibition of GSK-3 alpha in human HL-60 cells assessed as CD11b expression at 5 to 10 uM after 6 days by flow cytometry

[10] = molecular target: Glycogen synthase kinase-3 beta (Homo sapiens, UniProt P49841)
Glycogen synthase kinase-3 beta, sequence (P49841 whole entry): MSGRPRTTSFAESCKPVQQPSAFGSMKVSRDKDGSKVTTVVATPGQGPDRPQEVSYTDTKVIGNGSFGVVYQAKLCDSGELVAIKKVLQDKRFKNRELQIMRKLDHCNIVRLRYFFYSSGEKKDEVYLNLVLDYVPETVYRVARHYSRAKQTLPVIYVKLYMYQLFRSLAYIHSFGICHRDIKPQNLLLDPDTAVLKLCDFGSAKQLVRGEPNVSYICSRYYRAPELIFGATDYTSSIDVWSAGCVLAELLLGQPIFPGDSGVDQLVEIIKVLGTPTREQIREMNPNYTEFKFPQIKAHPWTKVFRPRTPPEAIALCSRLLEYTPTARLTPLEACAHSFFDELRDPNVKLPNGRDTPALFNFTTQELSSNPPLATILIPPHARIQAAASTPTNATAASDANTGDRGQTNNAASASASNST

Danio rerio [11] = assay: Induction of morphological abnormality in wild type zebrafish embryo in E3 medium at 1 to 15 uM dosed 24 hrs of post fertilization; type: functional, organism-based
Danio rerio [12] = assay: Toxicity in wild type zebrafish embryo in E3 medium assessed as induction of lethality treated at <60 uM dosed 24 hrs of post fertilization observed on 96 to 120 hrs of post fertilization; type: organism-based; conditions: in vivo
[13] = molecular target: T1, Glycogen synthase kinase-3 alpha; conditions: NB-4, 5 to 10 uM; remark: listed apart in the source
[14] = molecular target: T1, Glycogen synthase kinase-3 alpha; conditions: NB-4, 5 to 10 uM; remark: listed apart in the source
Description: Inhibition of GSK-3 alpha in human NB4 cells assessed as CD14 expression at 5 to 10 uM after 6 days by flow cytometry

[15] = molecular target: T1, Glycogen synthase kinase-3 alpha; conditions: HL-60, 5 to 10 uM; remark: listed apart in the source
Description: Inhibition of GSK-3 alpha in human HL-60 cells assessed as decreased nuclear to cytoplasmic ratio at 5 to 10 uM after 6 days by May-Grunwald Giemsa staining based light microscopy

[16] = molecular target: T1, Glycogen synthase kinase-3 alpha; conditions: HL-60, 5 to 10 uM; remark: listed apart in the source
Description: Inhibition of GSK-3 alpha in human HL-60 cells assessed as CD11c expression at 5 to 10 uM after 6 days by flow cytometry

Danio rerio [17] = assay: Inhibition of embryonic development in wild type zebrafish embryo in E3 medium assessed as beta catenin activation at >30 uM dosed 24 hrs of post fertilization; type: functional, organism-based
[18] = molecular target: T1, Glycogen synthase kinase-3 alpha; conditions: NB-4, 5 to 10 uM; remark: listed apart in the source
Description: Inhibition of GSK-3 alpha in human NB4 cells assessed as CD11c expression at 5 to 10 uM after 6 days by flow cytometry

Danio rerio [19] = assay: Induction of morphological abnormality wild type zebrafish embryo in E3 medium assessed as stunted and crooked tail phenotype at >30 uM dosed 24 hrs of post fertilization; type: functional, organism-based
Sus scrofa [20] = species: Sus scrofa; conditions: 100 nM
Sus scrofa [21] = species: Sus scrofa; conditions: 100 nM; remark: listed apart in the source
Danio rerio [22] = assay: Induction of morphological abnormality in wild type zebrafish embryo in E3 medium dosed 24 hrs of post fertilization; type: functional, organism-based

SMILES: NC(=O)c1cc(F)ccc1-c1ccc(CSc2nnc(-c3ccc4c(c3)OCCO4)o2)cc1
inhibition [2]: Active
IC50 [3]: 42 nM
solubility thermodynamic [1]: 73 µM (≈ 33.8 µg/mL)
inhibition [4]: Active
inhibition [5]: Active
inhibition [6]: Active
inhibition [7]: Active
inhibition [8]: Active
inhibition [9]: Active
IC50 [10]: 140 nM
Activity (Danio rerio [11]): inactive
Activity (Danio rerio [12]): Non-toxic
inhibition [13]: Active
inhibition [14]: Active
inhibition [15]: Active
inhibition [16]: Active
Activity (Danio rerio [17]): Active
inhibition [18]: Active
Activity (Danio rerio [19]): Active

SMILES: Cc1ccc(-c2ccc(CSc3nnc(-c4ccc5c(c4)OCCO5)o3)cc2)nc1
solubility thermodynamic [1]: 1 µM (≈ 0.417 µg/mL)

SMILES: Cc1ccc(-c2ccc(CSc3nnc(-c4ccc5c(c4)OCCO5)o3)cc2)cn1
solubility thermodynamic [1]: < 1 µM

SMILES: N#Cc1cc(F)ccc1-c1ccc(CS(=O)(=O)c2nnc(-c3ccc4c(c3)OCCO4)o2)cc1
inhibition (Sus scrofa [20]): 0%
inhibition (Sus scrofa [21]): 0%

SMILES: N#Cc1ccc(-c2ccc(CSc3nnc(-c4ccc5c(c4)OCCO5)o3)cc2)nc1
solubility thermodynamic [1]: 181 µM (≈ 77.6 µg/mL)
Activity (Danio rerio [22]): inactive
Activity (Danio rerio [12]): Non-toxic

The next lines start with the values.

solubility thermodynamic [1]: 1 µM (≈ 0.422 µg/mL)
SMILES: Fc1ccc(-c2ccc(CSc3nnc(-c4ccc5c(c4)OCCO5)o3)cn2)cn1

solubility thermodynamic [1]: 17 µM (≈ 7.16 µg/mL)
SMILES: Fc1ccc(-c2ccc(CSc3nnc(-c4ccc5c(c4)OCCO5)o3)cc2)cn1

solubility thermodynamic [1]: 1 µM (≈ 0.445 µg/mL)
SMILES: N#Cc1cc(F)ccc1-c1ccc(CSc2nnc(-c3ccc4c(c3)OCCO4)o2)cc1

solubility thermodynamic [1]: 50 µM (≈ 21.4 µg/mL)
SMILES: N#Cc1ccc(-c2ccc(CSc3nnc(-c4ccc5c(c4)OCCO5)o3)cc2)cn1
